Test results as given in patent US5977102A, “Pyrimido [5, 4-d] pyrimidines, pharmaceuticals containing these compounds, their use and processes for their preparation” (Dr. Karl Thomae GmbH, priority 1996, dated 1999).

What was measured:
Format in all cases: cell-based
human EGF-R = target: T1, human EGF-R (Homo sapiens, UniProt P00533); assay: Inhibition of EGF-dependent proliferation of F/L-HERc cells; details: EGF (20 ng/ml), 48 hours
T1 construct: expressed in transfected cells; host or cells: F/L-HERc: murine IL-3-dependent FDC-P1 cells infected with recombinant retrovirus (vector LXSN, packaging line GP+E86) carrying human EGF-R cDNA
T1 sequence (P00533 25-1210): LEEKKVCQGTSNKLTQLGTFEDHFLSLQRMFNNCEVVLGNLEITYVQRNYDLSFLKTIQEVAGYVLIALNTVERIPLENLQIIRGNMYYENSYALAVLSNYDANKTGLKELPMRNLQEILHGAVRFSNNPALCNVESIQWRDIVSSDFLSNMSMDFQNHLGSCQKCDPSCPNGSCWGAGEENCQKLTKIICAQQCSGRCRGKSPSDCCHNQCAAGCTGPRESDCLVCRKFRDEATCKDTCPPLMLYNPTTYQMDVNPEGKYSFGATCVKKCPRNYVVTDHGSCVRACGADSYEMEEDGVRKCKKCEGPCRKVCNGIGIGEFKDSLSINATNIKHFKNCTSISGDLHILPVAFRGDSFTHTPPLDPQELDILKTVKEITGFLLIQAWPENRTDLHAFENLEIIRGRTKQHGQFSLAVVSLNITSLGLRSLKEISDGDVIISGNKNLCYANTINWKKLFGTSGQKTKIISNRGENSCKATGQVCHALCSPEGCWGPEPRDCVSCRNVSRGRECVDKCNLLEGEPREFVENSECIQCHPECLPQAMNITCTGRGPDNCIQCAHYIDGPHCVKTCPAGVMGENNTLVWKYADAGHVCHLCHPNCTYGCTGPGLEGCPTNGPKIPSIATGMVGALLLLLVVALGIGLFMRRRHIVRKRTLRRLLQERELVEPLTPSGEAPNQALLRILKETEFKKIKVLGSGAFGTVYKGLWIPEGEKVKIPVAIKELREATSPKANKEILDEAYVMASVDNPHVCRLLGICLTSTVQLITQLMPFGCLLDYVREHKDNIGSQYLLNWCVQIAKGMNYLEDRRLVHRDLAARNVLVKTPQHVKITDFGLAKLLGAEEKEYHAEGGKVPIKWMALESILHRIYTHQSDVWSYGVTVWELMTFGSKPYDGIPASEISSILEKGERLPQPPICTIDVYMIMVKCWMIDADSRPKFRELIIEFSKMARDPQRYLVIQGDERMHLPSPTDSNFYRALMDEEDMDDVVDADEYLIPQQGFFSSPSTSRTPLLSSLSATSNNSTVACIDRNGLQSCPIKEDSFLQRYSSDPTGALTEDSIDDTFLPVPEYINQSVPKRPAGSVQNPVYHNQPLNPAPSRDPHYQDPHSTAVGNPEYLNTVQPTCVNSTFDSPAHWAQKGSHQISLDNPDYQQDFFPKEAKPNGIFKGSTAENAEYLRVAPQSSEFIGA
Source text: (§1) In this case, an interleukin-3 (IL-3)-dependent cell line of murine origin was used and was genetically modified in such a way that it expresses functional human EGF-R. Proliferation of these cells, which are called F/L-HERc, can therefore be stimulated either by murine IL-3 or by EGF (see von Ruden, T. et al. in EMBO J. 7, 2749-2756 (1988) and Pierce, J. H. et al. in Science 239, 628-631 (1988)).
(§2) The starting material for the F/L-HERc cells was the cell line FDC-P1,whose preparation has been described by Dexter, T. M. et al. in J. Exp. Med. 152, 1036-1047 (1980). However, it is also possible as an alternative to use other growth factor-dependent cells (see, for example, Pierce, J. H. et al. in Science 239, 628-631 (1988), Shibuya, H. et al. in Cell 70, 57-67 (1992) and Alexander, W. S. et al. in EMBO J. 10, 3683-3691 (1991)). Recombinant retroviruses as described in von Ruden, T. et al., EMBO J. 7, 2749-2756 (1988) were used for expression of the human EGF-R cDNA (see Ullrich, A. et al. in Nature 309, 418-425 (1984)) with the difference that the retroviral vector LXSN (see Miller, A. D. et al. in BioTechniques 7, 980-990 (1989)) was employed for expression of the EGF-R cDNA, and the line GP+E86 (see Markowitz, D. et al. in J. Virol. 62, 1120-1124 (1988)) was used as packaging cell.
(§3) The test was carried out as follows:
(§4) F/L-HERc cells were cultivated in RPMI/1640 medium (BioWhittaker), supplemented with 10% fetal calf serum (FCS, Boehringer Mannheim), 2 mM glutamine (BioWhittaker), standard antibiotics and 20 ng/ml human EGF (Promega), at 37° C. and 5% CO2. To investigate the inhibitory activity of the compounds according to the invention, 1.5×10^4 cells were cultivated in the above medium (200 μl) per well in triplicates in 96-well plates, stimulating proliferation of the cells either with EGF (20 ng/ml) or with murine IL-3. The source used for IL-3 was culture supernatants from the cell line X63/0 mIL-3 (see Karasuyama, H. et al. in Eur. J. Immunol. 18, 97-104 (1988)). The compounds according to the invention were dissolved in 100% dimethyl sulphoxide (DMSO) and added in various dilutions to the cultures, with the maximum DMSO concentration being 1%. The cultures were incubated at 37° C. for 48 hours.
(§5) To determine the inhibitory activity of the compounds according to the invention, the relative cell count was measured in O.D. units using the Cell Titre 96™ AQueous Non-Radioactive Cell Proliferation Assay (Promega). The relative cell count was calculated as a per cent of the control (F/L-HERc cells without inhibitor), and the concentration of active substance which inhibits the proliferation of the cells by 50% (IC50) was inferred.

F/L-HERc cells = assay: Inhibition of IL-3-dependent proliferation of F/L-HERc cells; details: Mus musculus, murine IL-3, 48 hours
Source text: as §1, §2, §3, §4, §5

[1] = tested on: human tumour cell line KB; assay: Inhibition of EGF/TGF-alpha-stimulated KB cell proliferation ([3H]-thymidine incorporation); details: KB cells, TGF-alpha [10 ng/ml] or EGF [20 ng/ml], 60 hours, then [3H]-thymidine 16-18 h
Experimental: To do this, the cells were washed twice and 1500 cells per well were plated out in a 96-well plate in 200 μl of IMDM (BioWhittaker) without serum in the presence of 50 μM mercaptoethanol, standard antibiotics, TGF-alpha [10 ng/ml] or EGF [20 ng/ml] and of various concentrations of the substances according to the invention (triplicates, maximum DMSO concentration 1%, see proliferation test with F/L-HERc cells). After 60 hours, [^3 H]-thymidine (0.1 μCi in 10 μl) was added for about 16-18 h.

Row | SMILES | IC50 (human EGF-R) | IC50 (F/L-HERc cells) | IC50 [1]
1 | c1nc(Nc2ccc3[nH]ncc3c2)c2nc(N3CCOCC3)ncc2n1 [1(4), 4-(5-indazolylamino)-6-morpholinopyrimido[5,4-d]pyrimidine] | 125 nM | – | –
2 | Fc1ccc(Nc2ncnc3cnc(N4CCC(c5ccncc5)CC4)nc23)cc1Cl [2(9), 4-[(3-chloro-4-fluorophenyl)amino]-6-[4-(4-pyridyl)-1-piperidinyl]pyrimido[5,4-d]pyrimidine] | 225 nM | > 20000 nM | –
3 | c1nc(Nc2ccc3[nH]ccc3c2)c2nc(N3CCOCC3)ncc2n1 [Example 1, 4-(5-Indolylamino)-6-morpholinopyrimido[5,4-d]pyrimidine] | 21 nM | 10000 nM | –
4 | c1ccc2c(c1)CCC(Nc1ncnc3cnc(NC4CC4)nc13)C2 (stereo not shown) [1(16), 4-(1,2,3,4-tetrahydro-2-naphthylamino)-6-cyclopropylaminopyrimido[5,4-d]pyrimidine] | 200 nM | – | –
5 | NCc1cccc(CNc2ncc3ncnc(Nc4ccc(F)c(Cl)c4)c3n2)c1 [2(11), 4-[(3-chloro-4-fluorophenyl)amino]-6-[3-(aminomethyl)benzylamino]pyrimido[5,4-d]pyrimidine] | 190 nM | – | –
6 | Fc1ccc(Nc2ncnc3cnc(NCc4ccccn4)nc23)cc1Cl [2(7), 4-[(3-chloro-4-fluorophenyl)amino]-6-(2-picolylamino)pyrimido[5,4-d]pyrimidine] | 175 nM | > 1000 nM | –
7 | O=C(N1CCC(Nc2ncc3ncnc(Nc4ccc(F)c(Cl)c4)c3n2)CC1)C(F)(F)F [2(8), 4-[(3-chloro-4-fluorophenyl)amino]-6-[1-trifluoroacetyl-4-piperidinylamino]pyrimido[5,4-d]pyrimidine] | 15 nM | > 20000 nM | –
8 | O=C(CN1CCN(c2ncc3ncnc(Nc4ccc(F)c(Cl)c4)c3n2)CC1)N1CCOCC1 [2(5), 4-[(3-chloro-4-fluorophenyl)amino]-6-[4-(morpholinocarbonylmethyl)-1-piperazinyl]pyrimido[5,4-d]pyrimidine] | 40 nM | > 10000 nM | –
9 | Fc1ccc(Nc2ncnc3cnc(NCc4ccncc4)nc23)cc1Cl [Example 2, 4-[(3-Chloro-4-fluorophenyl)amino]-6-(4-picolylamino)pyrimido[5,4-d]pyrimidine] | 50 nM | > 1000 nM | 400 nM
10 | O[C@H]1CC[C@H](Nc2ncc3ncnc(Nc4ccc5c(c4)Cc4ccccc4-5)c3n2)CC1 [2(15), 4-[2-fluorenylamino]-6-(trans-4-hydroxycyclohexylamino)pyrimido[5,4-d]pyrimidine] | > 10000 nM | – | –
11 | c1cc2cc(Nc3ncnc4cnc(N5CCOCC5)nc34)ccc2cn1 [1(14), 4-(6-isoquinolylamino)-6-morpholinopyrimido[5,4-d]-pyrimidine] | 2300 nM | 2200 nM | –
12 | CN1CCC2(CC1)CN(c1ncc3ncnc(Nc4ccc(F)c(Cl)c4)c3n1)C2 [2(3), 4-[(3-chloro-4-fluorophenyl)amino]-6-(7-methyl-2,7-diazaspiro[3.5]-2-nonyl)pyrimido[5,4-d]pyrimidine] | 138 nM | > 10000 nM | –
13 | c1cnc2ccc(Nc3ncnc4cnc(N5CCOCC5)nc34)cc2c1 [1(2), 4-(6-quinolylamino)-6-morpholinopyrimido[5,4-d]pyrimidine] | 1000 nM | – | –
14 | c1cc(Nc2ncnc3cnc(N4CCOCC4)nc23)c2cccnc2c1 [1(1), 4-(5-quinolylamino)-6-morpholinopyrimido[5,4-d]pyrimidine] | 2000 nM | 10000 nM | –
15 | c1cc(Nc2ncnc3cnc(N4CCOCC4)nc23)c2nsnc2c1 [1(5), 4-[4-(2,1,3-benzothiadiazolyl)amino]-6-morpholinopyrimido[5,4-d]pyrimidine] | 1000 nM | – | –
16 | CN1[C@@H]2CC[C@H]1C[C@@H](Nc1ncc3ncnc(Nc4ccc(F)c(Cl)c4)c3n1)C2 [2(18), 4-[(3-chloro-4-fluorophenyl)amino]-6-(endo-tropinylamino)pyrimido[5,4-d]pyrimidine] | 138 nM | > 10000 nM | –
17 | c1cnc2c(Nc3ncnc4cnc(N5CCOCC5)nc34)cccc2c1 [1(3), 4-(8-quinolylamino)-6-morpholinopyrimido[5,4-d]pyrimidine] | 800 nM | – | –
18 | c1cc(Nc2ncnc3cnc(N4CCOCC4)nc23)ccn1 [1(13), 4-(4-pyridylamino)-6-morpholinopyrimido[5,4-d]pyrimidine] | 10000 nM | 9000 nM | –
19 | c1cncc(Nc2ncnc3cnc(N4CCOCC4)nc23)c1 [1(9), 4-(3-pyridylamino)-6-morpholinopyrimido[5,4-d]pyrimidine] | 6000 nM | – | –
20 | Fc1ccc(Nc2ncnc3cnc(N4CCN(c5ccccn5)CC4)nc23)cc1Cl [2(10), 4-[(3-chloro-4-fluorophenyl)amino]-6-[4-(2-pyridyl)-1-piperazinyl]pyrimido[5,4-d]pyrimidine] | 275 nM | > 20000 nM | –
21 | CN1[C@@H]2CC[C@H]1C[C@H](Nc1ncc3ncnc(Nc4ccc(F)c(Cl)c4)c3n1)C2 [2(19), 4-[(3-chloro-4-fluorophenyl)amino]-6-(exo-tropinylamino)pyrimido[5,4-d]pyrimidine] | 28 nM | > 10000 nM | –
22 | O=C(CN1CCN(c2ncc3ncnc(Nc4ccc(F)c(Cl)c4)c3n2)CC1)N1CCCC1 [2(4), 4-[(3-chloro-4-fluorophenyl)amino]-6-[4-(1-pyrrolidinylcarbonylmethyl)-1-piperazinyl]pyrimido[5,4-d]pyrimidine] | 200 nM | > 10000 nM | –
23 | Cc1cccc(Nc2ncnc3cnc(-n4ccnc4)nc23)c1 [2(2), 4-[(3-methylphenyl)amino]-6-(1-imidazolyl)pyrimido-[5,4-d]pyrimidine] | 400 nM | – | –
24 | O[C@H]1CC[C@H](Nc2ncc3ncnc(Nc4ccc5[nH]ccc5c4)c3n2)CC1 [2(1), 4-(5-indolylamino)-6-[trans-(4-hydroxycyclohexyl)amino]pyrimido[5,4-d]pyrimidine] | 1 nM | > 10000 nM | –
25 | NCc1ccc(CNc2ncc3ncnc(Nc4ccc(F)c(Cl)c4)c3n2)cc1 [2(12), 4-[(3-chloro-4-fluorophenyl)amino]-6-[4-(aminomethyl)benzylamino]pyrimido[5,4-d]pyrimidine] | 98 nM | – | –
26 | Fc1ccc(Nc2ncnc3cnc(NN4CCOCC4)nc23)cc1Cl [Example 2(6), 4-[(3-chloro-4-fluorophenyl)amino]-6-[(4-morpholinyl)amino]pyrimido[5,4-d]pyrimidine] | 3 nM | > 10000 nM | 100 nM
27 | Clc1cccc(CNc2ncnc3cnc(N4CCOCC4)nc23)c1 [1(15), 4-(3-chlorobenzylamino)-6-morpholinopyrimido[5,4-d]-pyrimidine] | 1 nM | > 10000 nM | –
